Measured values taken from patent US8329685B1, “Enhancement of the action of anti-infective agents and of central and peripheral nervous system agents and transportation of nucleic acid substances” (priority 2001, dated 2012).

Test system: M.Tb. drug resistant strain TV25
Format: cell-based, Mycobacterium tuberculosis

Which results are given for `NNC(=O)c1ccncc1` [INH, Isoniazid]?
additional effectiveness of INH in the presence of MZL: 41.5%; effect of INH alone (without MZL): no effect
